Experimental data from ChEMBL document CHEMBL1821711, “Design and synthesis of novel arylpiperazine derivatives containing the imidazole core targeting 5-HT(2A) receptor and 5-HT transporter” (J Med Chem, 2011).

molecular target: Cytochrome P450 2C9 (Homo sapiens, UniProt P11712); assay: not given; conditions: not given
Sequence (P11712 whole entry): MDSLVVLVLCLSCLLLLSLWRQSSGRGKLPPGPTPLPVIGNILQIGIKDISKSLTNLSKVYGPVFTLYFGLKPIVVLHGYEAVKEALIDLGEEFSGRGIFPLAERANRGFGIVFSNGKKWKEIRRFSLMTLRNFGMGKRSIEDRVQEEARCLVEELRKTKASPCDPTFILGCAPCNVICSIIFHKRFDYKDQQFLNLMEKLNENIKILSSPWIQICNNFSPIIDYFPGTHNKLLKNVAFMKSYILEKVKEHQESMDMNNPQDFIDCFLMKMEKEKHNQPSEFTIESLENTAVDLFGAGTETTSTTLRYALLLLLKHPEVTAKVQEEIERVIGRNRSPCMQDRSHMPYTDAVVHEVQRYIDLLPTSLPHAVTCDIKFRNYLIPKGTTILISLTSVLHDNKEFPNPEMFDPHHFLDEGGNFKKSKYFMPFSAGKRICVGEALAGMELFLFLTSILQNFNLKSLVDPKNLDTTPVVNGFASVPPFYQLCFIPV

Compound	IC50 [nM]
Cc1c(Cl)cccc1N1CCN(CCCNC(=O)c2nc(-c3ccccc3)n(-c3ccccc3)c2Cn2cncn2)CC1	3300
Cc1c(Cl)cccc1N1CCN(CCCNC(=O)c2nc(-c3ccccc3)n(-c3ccccc3)c2C)CC1	2900

molecular target: Cytochrome P450 3A4 (Homo sapiens, UniProt P08684); assay: not given; conditions: not given
Sequence (P08684 whole entry): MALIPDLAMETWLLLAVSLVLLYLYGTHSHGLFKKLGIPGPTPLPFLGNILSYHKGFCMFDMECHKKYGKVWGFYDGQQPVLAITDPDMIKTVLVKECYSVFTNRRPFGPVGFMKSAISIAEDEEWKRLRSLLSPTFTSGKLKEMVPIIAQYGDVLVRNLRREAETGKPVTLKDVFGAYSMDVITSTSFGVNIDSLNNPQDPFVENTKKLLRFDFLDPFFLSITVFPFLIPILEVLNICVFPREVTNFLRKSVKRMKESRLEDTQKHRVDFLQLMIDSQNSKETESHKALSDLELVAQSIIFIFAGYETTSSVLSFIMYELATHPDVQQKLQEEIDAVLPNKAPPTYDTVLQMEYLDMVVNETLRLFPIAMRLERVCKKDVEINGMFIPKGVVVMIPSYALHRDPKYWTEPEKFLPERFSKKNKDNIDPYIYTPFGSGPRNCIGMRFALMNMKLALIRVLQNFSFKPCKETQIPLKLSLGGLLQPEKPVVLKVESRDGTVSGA

Compound	IC50 [nM]
Cc1c(Cl)cccc1N1CCN(CCCNC(=O)c2nc(-c3ccccc3)n(-c3ccccc3)c2Cn2cncn2)CC1	> 20000
Cc1c(Cl)cccc1N1CCN(CCCNC(=O)c2nc(-c3ccccc3)n(-c3ccccc3)c2C)CC1	> 20000

molecular target: Cytochrome P450 2D6 (Homo sapiens, UniProt P10635); assay: not given; conditions: not given
Sequence (P10635 whole entry): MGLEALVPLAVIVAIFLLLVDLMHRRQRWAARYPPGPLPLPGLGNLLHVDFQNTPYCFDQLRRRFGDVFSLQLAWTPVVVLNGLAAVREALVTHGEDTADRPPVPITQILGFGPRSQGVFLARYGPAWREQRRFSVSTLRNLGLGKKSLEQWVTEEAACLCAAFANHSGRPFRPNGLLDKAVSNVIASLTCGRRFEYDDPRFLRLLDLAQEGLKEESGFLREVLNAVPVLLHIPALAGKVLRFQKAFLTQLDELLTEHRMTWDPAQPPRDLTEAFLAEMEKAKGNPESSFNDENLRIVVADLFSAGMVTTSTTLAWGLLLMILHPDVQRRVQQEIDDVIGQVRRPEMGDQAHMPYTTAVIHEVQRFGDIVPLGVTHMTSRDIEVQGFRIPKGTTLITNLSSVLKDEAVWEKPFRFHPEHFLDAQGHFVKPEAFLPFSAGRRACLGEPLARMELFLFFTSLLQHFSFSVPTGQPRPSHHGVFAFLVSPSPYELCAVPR

Compound	IC50 [nM]
Cc1c(Cl)cccc1N1CCN(CCCNC(=O)c2nc(-c3ccccc3)n(-c3ccccc3)c2Cn2cncn2)CC1	4800
Cc1c(Cl)cccc1N1CCN(CCCNC(=O)c2nc(-c3ccccc3)n(-c3ccccc3)c2C)CC1	5400

molecular target: T1, 5-hydroxytryptamine receptor 2C (Homo sapiens, UniProt P28335); assay: biochemical; format: cell-based, CHO-K1; conditions: not given
T1 sequence (P28335 whole entry): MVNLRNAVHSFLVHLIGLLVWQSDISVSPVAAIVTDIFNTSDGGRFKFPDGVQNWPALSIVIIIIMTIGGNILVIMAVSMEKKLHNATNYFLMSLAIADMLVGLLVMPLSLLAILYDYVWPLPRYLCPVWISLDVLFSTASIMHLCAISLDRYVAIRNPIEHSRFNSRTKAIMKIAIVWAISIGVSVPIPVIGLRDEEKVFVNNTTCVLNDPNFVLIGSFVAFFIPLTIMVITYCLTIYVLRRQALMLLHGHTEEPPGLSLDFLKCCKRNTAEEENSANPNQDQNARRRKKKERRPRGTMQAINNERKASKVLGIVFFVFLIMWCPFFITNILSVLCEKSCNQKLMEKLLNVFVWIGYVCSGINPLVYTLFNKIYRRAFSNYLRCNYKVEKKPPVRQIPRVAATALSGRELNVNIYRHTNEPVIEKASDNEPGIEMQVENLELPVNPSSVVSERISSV

IC50 [nM]	Compound
68	CCCc1nc(C(=O)NCCCN2CCN(c3cccc(C)c3C)CC2)c(C)n1-c1ccc(F)cc1
64	COc1ccc(-n2c(-c3ccccc3)nc(C(=O)NCCCN3CCN(c4cccc(Cl)c4Cl)CC3)c2C)cc1
189	CCCc1nc(C(=O)NCCCN2CCN(c3cccc(Cl)c3Cl)CC2)c(C)n1-c1ccccc1F
185	Cc1c(C(=O)NCCCN2CCN(c3cccc(Cl)c3Cl)CC2)nc(-c2ccccc2)n1-c1ccccc1F
367	CCCc1nc(C(=O)NCCCN2CCN(c3cccc(Cl)c3C)CC2)cn1-c1ccc(Cl)cc1
1510	CCCc1nc(C(=O)NCC(O)CN2CCN(c3cccc(Cl)c3Cl)CC2)c(C)n1-c1ccc(F)cc1 (configuration not stated)
459	Cc1nc(C(=O)NCC(O)CN2CCN(c3cccc(Cl)c3Cl)CC2)c(C)n1-c1ccccc1F (configuration not stated)
297	CCCc1nc(C(=O)NCCCN2CCN(c3cccc(Cl)c3Cl)CC2)c(C)n1-c1ccc2c(c1)OCCO2
286	CCCc1nc(C(=O)NCCCN2CCN(c3cccc(C)c3C)CC2)c(C)n1-c1ccccc1
383	CCCc1nc(C(=O)NCCCN2CCN(c3cccc(Cl)c3Cl)CC2)c(C)n1-c1ccccc1OC
473	CCCc1nc(C(=O)NCCCN2CCN(c3cccc(Cl)c3C)CC2)c(C)n1-c1ccccc1OC
229	CCCc1nc(C(=O)NCCCN2CCN(c3cccc(Cl)c3C)CC2)c(C)n1-c1ccc(F)cc1
604	CCCc1nc(C(=O)NCCCN2CCN(c3cccc(Cl)c3C)CC2)c(C)n1-c1ccccc1
155	Cc1nc(C(=O)NCCCN2CCN(c3cccc(Cl)c3Cl)CC2)c(C)n1-c1ccccc1C(F)(F)F
113	Cc1c(Cl)cccc1N1CCN(CCCNC(=O)c2nc(C)n(-c3ccc(F)cc3)c2C)CC1
235	CCCc1nc(C(=O)NCCCN2CCN(c3cccc(C)c3C)CC2)c(C)n1-c1ccccc1Cl
77	COc1ccc(-n2c(-c3ccccc3)nc(C(=O)NCCCN3CCN(c4cccc(Cl)c4C)CC3)c2C)cc1
61	CCCc1nc(C(=O)NCCCN2CCN(c3cccc(Cl)c3C)CC2)c(C)n1-c1ccc2c(c1)OCCO2
198	CCCn1c(C)nc(C(=O)NCCCN2CCN(c3cccc(Cl)c3Cl)CC2)c1C
283	CCCc1nc(C(=O)NCCCN2CCN(c3cccc(C)c3C)CC2)c(C)n1-c1ccccc1OC

Continued, compound first:

Compound	IC50 [nM]
CCCc1nc(C(=O)NCC(O)CN2CCN(c3cccc(C)c3C)CC2)c(C)n1-c1ccc(F)cc1 (configuration not stated)	1000
COc1ccc(-n2c(C)nc(C(=O)NCCCN3CCN(c4cccc(C)c4C)CC3)c2C)cc1	191
COc1ccc(-n2cc(C(=O)NCCCN3CCN(c4cccc(C)c4C)CC3)nc2-c2ccccc2)cc1	104
Cc1cccc(N2CCN(CCCNC(=O)c3nc(-c4ccccc4)n(-c4ccc5c(c4)OCCO5)c3C)CC2)c1C	68
Cc1c(C(=O)NCC(O)CN2CCN(c3cccc(Cl)c3Cl)CC2)nc(-c2ccccc2)n1-c1ccc(F)cc1 (configuration not stated)	64
Cc1cccc(N2CCN(CC(O)CNC(=O)c3nc(C)n(-c4ccc5c(c4)OCCO5)c3C)CC2)c1C (configuration not stated)	610
Cc1c(Cl)cccc1N1CCN(CCCNC(=O)c2nc(-c3ccccc3)n(-c3ccccc3)c2Cn2cncn2)CC1	1370
CCCc1nc(C(=O)NCC(O)CN2CCN(c3cccc(C)c3C)CC2)c(C)n1-c1ccc2c(c1)OCCO2 (configuration not stated)	593
Cc1c(Cl)cccc1N1CCN(CCCNC(=O)c2nc(C)n(CC(C)C)c2C)CC1	2220
Cc1cccc(N2CCN(CCCNC(=O)c3nc(C)n(-c4ccc(Cl)cc4)c3C)CC2)c1C	233
Cc1cccc(N2CCN(CC(O)CNC(=O)c3nc(-c4ccccc4)n(-c4ccc(F)cc4)c3C)CC2)c1C (configuration not stated)	185
CCCc1nc(C(=O)NCCCN2CCN(c3cccc(C)c3C)CC2)cn1-c1ccc(F)cc1	238
COc1ccc(-n2c(-c3ccccc3)nc(C(=O)NCC(O)CN3CCN(c4cccc(C)c4C)CC3)c2C)cc1 (configuration not stated)	609
COc1ccc(-n2c(-c3ccccc3)nc(C(=O)NCCCN3CCN(c4cccc(C)c4C)CC3)c2C)cc1	96
Cc1nc(C(=O)NCCCN2CCN(c3cccc(Cl)c3Cl)CC2)c(C)n1C1CCCC1	139
Cc1cccc(N2CCN(CCCNC(=O)c3cn(-c4ccccc4)c(-c4ccccc4)n3)CC2)c1C	116

Compound	IC50 [nM]
Cc1c(Cl)cccc1N1CCN(CC(O)CNC(=O)c2nc(C)n(C3CCCC3)c2C)CC1 (configuration not stated)	166
COc1ccc(-n2c(C)nc(C(=O)NCC(O)CN3CCN(c4cccc(C)c4C)CC3)c2C)cc1 (configuration not stated)	546
COc1ccc(-n2c(-c3ccccc3)nc(C(=O)NCC(O)CN3CCN(c4cccc(Cl)c4C)CC3)c2C)cc1 (configuration not stated)	526
Cc1cccc(N2CCN(CCCNC(=O)c3nc(-c4ccccc4)n(-c4ccc(F)cc4)c3C)CC2)c1C	64.1
CCCc1nc(C(=O)NCCCN2CCN(c3cccc(Cl)c3C)CC2)c(C)n1-c1ccc(OC)cc1	204
Cc1c(Cl)cccc1N1CCN(CCCNC(=O)c2nc(C)n(-c3ccc4c(c3)OCCO4)c2C)CC1	106
Cc1c(Cl)cccc1N1CCN(CC(O)CNC(=O)c2nc(-c3ccccc3)n(-c3ccccc3)c2C)CC1 (configuration not stated)	739
CCCc1nc(C(=O)NCC(O)CN2CCN(c3cccc(C)c3C)CC2)c(C)n1-c1ccc(Cl)cc1 (configuration not stated)	661
Cc1c(Cl)cccc1N1CCN(CC(O)CNC(=O)c2nc(C)n(-c3ccc4c(c3)OCCO4)c2C)CC1 (configuration not stated)	663
Cc1c(Cl)cccc1N1CCN(CCCNC(=O)c2nc(-c3ccccc3)n(-c3ccc(F)cc3)c2C)CC1	2240
Cc1c(Cl)cccc1N1CCN(CCCNC(=O)c2nc(C)n(C3CCCC3)c2C)CC1	4370
COc1ccc(-n2c(C)nc(C(=O)NCC(O)CN3CCN(c4cccc(Cl)c4C)CC3)c2C)cc1 (configuration not stated)	323
Cc1cccc(N2CCN(CCCNC(=O)c3nc(-c4ccccc4)n(-c4ccccc4)c3C)CC2)c1C	193
Cc1c(Cl)cccc1N1CCN(CCCNC(=O)c2nc(-c3ccccc3)n(-c3ccccc3)c2C)CC1	1510
Cc1c(Cl)cccc1N1CCN(CC(O)CNC(=O)c2nc(C)n(-c3cccc(Cl)c3)c2C)CC1 (configuration not stated)	556
CCCn1c(C)nc(C(=O)NCC(O)CN2CCN(c3cccc(C)c3C)CC2)c1C (configuration not stated)	> 10000

molecular target: T2, Cytochrome P450 1A2 (Homo sapiens, UniProt P05177); assay: not given; conditions: not given
T2 sequence (P05177 whole entry): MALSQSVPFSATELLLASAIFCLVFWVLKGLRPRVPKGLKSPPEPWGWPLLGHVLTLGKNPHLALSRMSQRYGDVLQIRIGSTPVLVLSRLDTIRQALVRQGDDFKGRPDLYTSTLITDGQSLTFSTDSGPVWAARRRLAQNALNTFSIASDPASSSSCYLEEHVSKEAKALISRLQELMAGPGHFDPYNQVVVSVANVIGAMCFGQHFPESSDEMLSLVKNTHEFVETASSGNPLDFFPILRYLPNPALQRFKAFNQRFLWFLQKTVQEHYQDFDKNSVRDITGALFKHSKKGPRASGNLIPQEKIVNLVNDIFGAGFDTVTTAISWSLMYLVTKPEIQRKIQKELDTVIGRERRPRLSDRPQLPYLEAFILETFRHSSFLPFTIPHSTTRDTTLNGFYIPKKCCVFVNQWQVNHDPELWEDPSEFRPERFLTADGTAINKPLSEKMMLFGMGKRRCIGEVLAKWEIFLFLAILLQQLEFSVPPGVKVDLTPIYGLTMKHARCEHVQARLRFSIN

Compound	IC50 [nM]
Cc1c(Cl)cccc1N1CCN(CCCNC(=O)c2nc(-c3ccccc3)n(-c3ccccc3)c2Cn2cncn2)CC1	15300
Cc1c(Cl)cccc1N1CCN(CCCNC(=O)c2nc(-c3ccccc3)n(-c3ccccc3)c2C)CC1	> 20000

tested on: not listed separately; assay: in vitro; conditions: mouse, ht-22
Description: Cytotoxicity against mouse HT22 cells after 48 hrs by MTT assay

Compound	CC50 at 48 h [nM]
Cc1c(Cl)cccc1N1CCN(CCCNC(=O)c2nc(-c3ccccc3)n(-c3ccccc3)c2Cn2cncn2)CC1	19100
Cc1c(Cl)cccc1N1CCN(CCCNC(=O)c2nc(-c3ccccc3)n(-c3ccccc3)c2C)CC1	23600
